# Assay results from patent US20150105252A1, “SUBSTITUTED PYRAZOLES AS HERBICIDES” (E I DU PONT DE NEMOURS AND COMPANY, priority 2013, published 2015).
# Legend:
# crabgrass, large [1] = experiment: Test A preemergence; assay type: in vivo, Digitaria sanguinalis
# Method in brief: (§1)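 Visual injury ratings, 0 = no effect to 100 = complete control, taken about 10 days after treatment against untreated controls. Test chemicals, in a non-phytotoxic surfactant-containing solvent, were sprayed onto soil preemergence or onto one- to two-leaf plants (2–10 cm) postemergence, in loam–sand soil under greenhouse conditions.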
# ducksalad = experiment: Test B flood; assay type: in vivo, Heteranthera limosa; conditions: 250 g ai/ha, visual rating on 0 to 100 scale (0 no effect, 100 complete control), 13 to 15 days
# Method in brief: (§2)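 2-leaf plants; pots flooded 3 cm over soil; compound added to paddy water, depth kept constant. Greenhouse 13–15 d. Visual rating vs controls, 0–100 scale (100 = complete control); dash = no result.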
# sedge, umbrella = experiment: Test B flood; assay type: in vivo, Cyperus difformis; conditions: 250 g ai/ha, visual rating on 0 to 100 scale (0 no effect, 100 complete control), 13 to 15 days
# Method in brief: as §2
# corn = experiment: Test A postemergence; assay type: in vivo, Zea mays
# Method in brief: as §1
# rice = experiment: Test B flood; assay type: in vivo, Oryza sativa; conditions: 250 g ai/ha, visual rating on 0 to 100 scale (0 no effect, 100 complete control), 13 to 15 days
# Method in brief: as §2
# pigweed = experiment: Test A postemergence; assay type: in vivo, Amaranthus retroflexus
# Method in brief: as §1
# morningglory [2] = experiment: Test A preemergence; assay type: in vivo, Ipomoea spp.
# Method in brief: as §1
# velvetleaf = experiment: Test A postemergence; assay type: in vivo, Abutilon theophrasti
# Method in brief: as §1
# nutsedge, yellow = experiment: Test C preemergence; assay type: in vivo, Cyperus esculentus; conditions: for Plant response rating (scale of 0 to 100), Nutsedge, Yellow: 250 g ai/ha
# From the text: (§3) Seeds of plant species selected from blackgrass (Alopecurus myosuroides), ryegrass, Italian (Italian ryegrass, Lolium multiflorum), wheat (winter wheat, Triticum aestivum), galium (catchweed bedstraw, Galium aparine), corn (Zea mays), crabgrass, large (large crabgrass, Digitaria sanguinalis), foxtail, giant (giant foxtail, Setaria faberii), johnsongrass (Sorghum halepense), lambsquarters (Chenopodium album), morningglory (Ipomoea coccinea), nutsedge, yellow (yellow nutsedge, Cyperus esculentus), pigweed (redroot pigweed, Amaranthus retroflexus), ragweed (common ragweed, Ambrosia elation), soybean (Glycine max), barnyardgrass (Echinochloa crus-galli), oilseed rape (Brassica napus), waterhemp (common waterhemp, Amaranthus rudis), oat, wild (wild oat, Avena fatua), kochia (Kochia scoparia), Surinam grass (Brachiaria decumbens), foxtail, green (green foxtail, Setaria viridis), goosegrass (Eleusine indica), bromegrass, downy (downy bromegrass, Bromus tectorum), nightshade (eastern black nightshade, Solanum ptycanthum), cocklebur (common cocklebur, Xanthium strumarium), cupgrass, woolly (woolly cupgrass, Eriochloa villosa), bermudagrass (Cynodon dactylon), sunflower, (common oilseed sunflower, Helianthus annuus), Russian thistle (Salsola kali), and velvetleaf (Abutilon theophrasti) were planted into a blend of loam soil and sand and treated preemergence with test chemicals formulated in a non-phytotoxic solvent mixture which included a surfactant.
# (§4) At the same time, plants selected from these crop and weed species and also chickweed (common chickweed, Stellaria media), canarygrass (littleseed canarygrass, Phalaris minor), and deadnettle (henbit deadnettle, Lamium amplexicaule), were planted in pots containing Redi-Earth® planting medium (Scotts Company, 14111 Scottslawn Road, Marysville, Ohio 43041) comprising spaghnum peat moss, vermiculite, wetting agent and starter nutrients and treated with postemergence applications of test chemicals formulated in the same manner. Plants ranged in height from 2 to 18 cm (1- to 4-leaf stage) for postemergence treatments. Treated plants and controls were maintained in a greenhouse for 13 to 15 days, after which time all species were compared to controls and visually evaluated. Plant response ratings, summarized in Table C, are based on a scale of 0 to 100 where 0 is no effect and 100 is complete control. A dash (-) response means no test result.
# crabgrass, large [3] = experiment: Test A postemergence; assay type: in vivo, Digitaria sanguinalis
# Method in brief: as §1
# ragweed = experiment: Test C preemergence; assay type: in vivo, Ambrosia elation; conditions: for Plant response rating (scale of 0 to 100), Ragweed: Preemergence, 250 g ai/ha
# From the text: as §3, §4
# barnyardgrass = experiment: Test A postemergence; assay type: in vivo, Echinochloa crus-galli
# Method in brief: as §1
# wheat = experiment: Test A preemergence; assay type: in vivo, Triticum aestivum; conditions: preemergence
# Method in brief: as §1
# morningglory [4] = experiment: Test C preemergence; assay type: in vivo, Ipomoea coccinea; conditions: for Plant response rating (scale of 0 to 100), Morningglory: 250 g ai/ha
# From the text: as §3, §4
# blackgrass = experiment: Test C preemergence; assay type: in vivo, Alopecurus myosuroides; conditions: for Plant response rating (scale of 0 to 100), Blackgrass: 250 g ai/ha
# From the text: as §3, §4
# [5] = Preemergence, 500 g ai/ha, 0 to 100 scale, 0 no effect, 100 complete control
# [6] = preemergence, 125 g ai/ha, visual injury, 0 to 100 scale, approx. 10 days
# [7] = Postemergence, 500 g ai/ha, visual rating after approx. 10 days, 0 to 100 scale (0 no effect, 100 complete control)
# [8] = postemergence, 125 g ai/ha, about 10 days, visual rating on 0 to 100 scale (0 no effect, 100 complete control)
# [9] = preemergence, 31 g ai/ha, visual rating, scale 0 to 100 (0 no effect, 100 complete control), 13 to 15 days
# [10] = preemergence, 62 g ai/ha, 13 to 15 days, scale 0 to 100, 0 = no effect, 100 = complete control
# [11] = preemergence, 125 g ai/ha, scale 0 to 100, 0 is no effect, 100 is complete control
# [12] = Postemergence, 125 g ai/ha, 0 to 100 scale, 0 no effect, 100 complete control
# [13] = 125 g ai/ha, visual injury, 0 to 100 scale, approx. 10 days
# [14] = 500 g ai/ha, visual injury after approx. 10 days, 0 to 100 scale (0 no effect, 100 complete control)
# [15] = preemergence, 500 g ai/ha, visual injury after approx. 10 days, 0 to 100 scale (0 no effect, 100 complete control)
# [16] = Preemergence, 16 g ai/ha, scale 0 to 100
# [17] = Postemergence, 500 g ai/ha, 0 to 100 scale (0 no effect, 100 complete control)
# [18] = preemergence, 62 g ai/ha, scale 0 to 100 (0 no effect, 100 complete control), 13 to 15 days
SMILES,"Crabgrass, Large plant response rating (crabgrass, large [1]; [6])","Plant response rating, Ducksalad (ducksalad)","Plant response rating, Sedge, Umbrella (sedge, umbrella)",Corn plant response rating (corn; [7]),Corn plant response rating (corn; [8]),"Plant response rating, Rice (rice)",Pigweed plant response rating (pigweed; [7]),Pigweed plant response rating (pigweed; [8]),Morningglory plant response rating (morningglory [2]; [6]),Velvetleaf plant response rating (velvetleaf; [7]),Velvetleaf plant response rating (velvetleaf; [8]),"Plant response rating (scale of 0 to 100), Nutsedge, Yellow (nutsedge, yellow; Preemergence)","Nutsedge, Yellow plant response rating (nutsedge, yellow; [9])","Plant response rating, Nutsedge, Yellow (nutsedge, yellow; [10])","Nutsedge, Yellow plant response rating (nutsedge, yellow; [11])","Crabgrass, Large plant response rating (crabgrass, large [3]; [7])","Crabgrass, Large plant response rating (crabgrass, large [3]; [8])",Wheat plant response rating (wheat; [13]),Wheat plant response rating (wheat; [14]),Barnyardgrass plant response rating (barnyardgrass; [8]),further results
"CCc1cc(C(=O)NCC(F)(F)F)nn1Cc1ccnc(C(F)(F)F)c1 [Compound 78, 5-ethyl-N-(2,2,2-trifluoroethyl)-1-[[(2-trifluoromethyl)-4-pyridinyl]methyl]-1H-pyrazole-3-carboxamide]",100,85,80,100,100,50,100,100,100,100,100,98,70,85,98,100,90,50,100,,"Crabgrass, Large plant response rating (crabgrass, large [1]; [5]): 100; Morningglory plant response rating (morningglory [2]; [5]): 100; Plant response rating (scale of 0 to 100), Ragweed (ragweed): 100; Ragweed plant response rating (ragweed; [9]): 80; Plant response rating, Ragweed (ragweed; [10]): 98; Ragweed plant response rating (ragweed; [11]): 98; Barnyardgrass plant response rating (barnyardgrass; [12]): 50; Barnyardgrass plant response rating (barnyardgrass; [7]): 90"
CCc1cc(C(=O)NOC(C)C)nn1Cc1ccnc(C(F)(F)F)c1 [Compound 101],100,70,60,100,90,0,90,60,80,80,50,,5,25,75,90,80,70,100,80,"Crabgrass, Large plant response rating (crabgrass, large [1]; [15]): 100; Plant response rating, Morningglory (morningglory [4]; [16]): 40; Morningglory plant response rating (morningglory [4]; [9]): 85; Plant response rating, Morningglory (morningglory [4]; [10]): 100; Morningglory plant response rating (morningglory [4]; [11]): 100; Morningglory plant response rating (morningglory [2]; [15]): 100; Plant response rating, Blackgrass (blackgrass; [16]): 30; Blackgrass plant response rating (blackgrass; [9]): 75; Plant response rating, Blackgrass (blackgrass; [10]): 90; Blackgrass plant response rating (blackgrass; [11]): 95; Plant response rating, Nutsedge, Yellow (nutsedge, yellow; [16]): 5; Barnyardgrass plant response rating (barnyardgrass; [7]): 90"
CCc1cc(C(=O)NC(C)C)nn1Cc1ccnc(C(F)(F)F)c1 [Compound 103],100,90,90,90,80,50,90,90,100,80,70,95,40,80,85,100,90,40,100,90,"Crabgrass, Large plant response rating (crabgrass, large [1]; [15]): 100; Plant response rating (scale of 0 to 100), Morningglory (morningglory [4]; Preemergence): 100; Morningglory plant response rating (morningglory [4]; [9]): 100; Plant response rating, Morningglory (morningglory [4]; [10]): 100; Morningglory plant response rating (morningglory [4]; [11]): 100; Morningglory plant response rating (morningglory [2]; [15]): 100; Plant response rating (scale of 0 to 100), Blackgrass (blackgrass; Preemergence): 100; Blackgrass plant response rating (blackgrass; [9]): 100; Plant response rating, Blackgrass (blackgrass; [10]): 100; Blackgrass plant response rating (blackgrass; [11]): 100; Barnyardgrass plant response rating (barnyardgrass; [7]): 90"
CCONC(=O)c1cc(CC)n(Cc2cc(C(F)(F)F)no2)n1 [Compound 125],,60,50,,30,10,,70,,,,55,0,,15,,,,,30,"Corn plant response rating (corn; [17]): 90; Pigweed plant response rating (pigweed; [17]): 100; Plant response rating (scale of 0 to 100), Morningglory (morningglory [4]; Preemergence): 95; Morningglory plant response rating (morningglory [4]; [9]): 45; Morningglory plant response rating (morningglory [4]; [18]): 50; Morningglory plant response rating (morningglory [4]; [11]): 75; Plant response rating (scale of 0 to 100), Blackgrass (blackgrass; Preemergence): 80; Blackgrass plant response rating (blackgrass; [9]): 0; Blackgrass plant response rating (blackgrass; [18]): 10; Blackgrass plant response rating (blackgrass; [11]): 60; Nutsedge, Yellow plant response rating (nutsedge, yellow; [18]): 5; Plant response rating (scale of 0 to 100), Ragweed (ragweed): 75; Ragweed plant response rating (ragweed; [9]): 5; Ragweed plant response rating (ragweed; [18]): 10; Ragweed plant response rating (ragweed; [11]): 55; Barnyardgrass plant response rating (barnyardgrass; [17]): 90"
CCCc1cc(C(=O)NCC(F)(F)F)nn1Cc1cc(C(F)(F)F)nn1C [Compound 138],100,80,90,,80,50,,100,90,,60,,,,,,100,80,90,100,"Crabgrass, Large plant response rating (crabgrass, large [1]; [15]): 100; Corn plant response rating (corn; [17]): 90; Pigweed plant response rating (pigweed; [17]): 100; Morningglory plant response rating (morningglory [2]; [15]): 100; Velvetleaf plant response rating (velvetleaf; [17]): 100; Crabgrass, Large plant response rating (crabgrass, large [3]; [17]): 100; Barnyardgrass plant response rating (barnyardgrass; [17]): 100"
CCc1cc(C(=O)NCC(F)(F)F)nn1Cc1cc(OC(F)F)nn1C [Compound 206],,0,0,,30,0,,,,,,,,,,,,,,0,Corn plant response rating (corn; [17]): 60; Pigweed plant response rating (pigweed; [12]): 80; Pigweed plant response rating (pigweed; [17]): 100; Barnyardgrass plant response rating (barnyardgrass; [17]): 60
